Experimental data taken from US12485118B2, “Combinations of GLP-1R and THRβ agonists and methods of use thereof” (Terns Pharmaceuticals, Inc., priority 2023, dated 2025).
“Also recorded” adds a separate entry of the source. Read-outs that look alike come from different tables or passages of the source.

Experiments:
DIO hGLP-1R mice = assay: Compound 9 in combination with orforglipron in DIO hGLP-1R mice: body weight, food intake, body mass composition, subcutaneous fat, liver weight; type: in vivo, mouse; conditions: Compound 9 3 mg/kg, orforglipron 0.2 and 2 mg/kg, combination 3 + 0.2 mg/kg; for body weight changes from baseline over time: PO QD 21 days; for terminal subcutaneous fat: study termination
Method: DIO hGLP-1R mice were housed at room temperature (21-25° C.) with a relative humidity of 40-70%. Temperature and relative humidity were monitored and recorded twice daily. An electronic time-controlled lighting system was used to provide a 12 h light/12 h dark cycle, 19:00 pm-7:00 am, lights out and enrichment toys were provided. The mice were fed high fat diet (HFD, Research Diets 12492, 60% kca, 1% fat) for >50 weeks to induce obesity. Mice were acclimated to once-daily (QD) oral dosing (per os, PO) for 1 week with body weight and food intake measured on consecutive 4 days prior to dosing start (Day 1). Body mass composition was measured by EchoMRI (Bruker Minispec LF90II) on Day 0 and mice were randomized to treatment groups (Table 5-1) based on baseline body weight, food intake, and body composition.
Body mass composition was assessed on Day 19. […] Subcutaneous fat was collected and weighed at study termination.

[1] = Plasma pharmacokinetics of Compound 9 and orforglipron in DIO hGLP-1R mice; conditions: for AUC(0-t) / Cmax: hGLP-1R transgenic (expressing human GLP-1R)
Method: Test compounds were formulated in vehicle (10% [v/v]Solutol HS15+90% [v/v]saline) and mice were treated QD PO for 21 days with vehicle, Compound 9 (3 mg/kg), orforglipron (0.2 and 2 mg/kg), and Compound 9 (3 mg/kg) in combination with orforglipron (0.2 mg/kg). Body weight and food intake were measured daily, and mice were maintained on HFD throughout the study period. On Day 20 of the study, plasma samples were collected at predose (O), 2-, 4-, 8-, and 24-hours postdose for pharmacokinetic analyses of Compound 9, orforglipron, and combination treatment groups. Body mass composition was assessed on Day 19. Liver was collected and weighed at study termination and portions were preserved for steatosis assessment by histology. Subcutaneous fat was collected and weighed at study termination. A sample of subcutaneous fat tissue was assessed for UCP-1 expression by qPCR and Western blot analyses.

humans = conditions: cited from earlier work
rodent GLP-1R = molecular target: T1, rodent GLP-1R (Mus musculus, UniProt O35659); conditions: cited from earlier work
T1 sequence (O35659 22-463): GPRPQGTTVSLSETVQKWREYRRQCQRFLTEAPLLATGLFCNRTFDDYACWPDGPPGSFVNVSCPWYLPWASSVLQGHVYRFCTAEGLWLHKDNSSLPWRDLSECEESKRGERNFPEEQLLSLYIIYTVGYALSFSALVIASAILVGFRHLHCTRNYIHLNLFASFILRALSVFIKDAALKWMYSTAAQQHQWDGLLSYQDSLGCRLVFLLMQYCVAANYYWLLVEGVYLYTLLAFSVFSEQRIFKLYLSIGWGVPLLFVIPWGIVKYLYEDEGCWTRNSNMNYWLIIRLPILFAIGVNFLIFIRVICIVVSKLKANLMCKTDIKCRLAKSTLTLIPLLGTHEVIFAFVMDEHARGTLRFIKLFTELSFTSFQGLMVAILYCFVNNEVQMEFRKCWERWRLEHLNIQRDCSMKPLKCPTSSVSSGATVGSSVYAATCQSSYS

male DIO mice [2] = assay: 6 weeks of Compound 9 alone and in combination with semaglutide: body weight, food intake, body composition (EchoMRI) in male DIO mice at thermoneutrality; type: in vivo, mouse; conditions: Compound 9 6 mg/kg PO combined with Semaglutide 30 nmol/kg SC
Method: (§1) Male C57BL/6JRj mice (5 weeks of age, n=70) were fed a high fat diet (n=60, 60% HFD, D12492, Ssniff) for 24 weeks, or a lean-chow diet (n=10, Altromin 1324) before treatment start. HFD animals were randomized during week -1 based on body weight, glucose levels and fat tissue mass into 5 treatments groups. Lean mice (group 1) were treated with vehicle (QD+QD, PO+SC) and DIO mice were treated (QD+QD, PO+SC) as follow: group 2 received vehicle (PO+SC), group 3 received Compound 9 6 mg/kg, PO+vehicle (SC), group 4 received Semaglutide (30 nmol/kg, SC)+vehicle (PO), group 5 received Compound 9 (6 mg/kg, PO)+Semaglutide (30 nmol/kg, SC) and group 6 received Tirzepatide (30 nmol/kg, SC)+vehicle (PO). Body weight, food and water intake were measured daily from day -3, body composition (EchoMRI) was measured during week -1 and week 6; energy expenditure was assessed at study day 5-7 and at study day 34-36. Fasting blood glucose and insulin levels were measured at baseline and termination, while an oral glucose tolerance test was performed at week 4. At termination, the M gastrocnemius muscle was weighted and collected for RNAseq analysis, while plasma, brain, liver, BAT, epidydimal and subcutaneous WAT depots were collected for sponsor.

male DIO mice [3] = assay: Energy expenditure (heat production, RER, oxygen consumption) in male DIO mice at thermoneutrality; type: in vivo, mouse
Method: as §1

male DIO mice [4] = assay: Glycemic control: oral glucose tolerance test and plasma insulin in male DIO mice at thermoneutrality; type: in vivo, mouse; conditions: week 6
Method: On the day of the OGTT, random blood glucose and body weight of the mice are measured, mice are dosed with corresponding compounds or vehicle in the morning before fasting, then the mice are fasted for 6 hours, basal fasting glucose is measured by tail vein nick thereafter. Glucose is orally gavaged with 2 g/kg at a dose volume of 5 mL/kg. Blood glucose levels are measured at 0 (pre-dose), 15-, 30-, 60-, and 120-min post glucose dosing. The second dose is administrated after OGTT treatment.
Male C57BL/6JRj mice (5 weeks of age, n=70) were fed a high fat diet (n=60, 60% HFD, D12492, Ssniff) for 24 weeks, or a lean-chow diet (n=10, Altromin 1324) before treatment start. HFD animals were randomized during week -1 based on body weight, glucose levels and fat tissue mass into 5 treatments groups. […] Body weight, food and water intake were measured daily from day -3, body composition (EchoMRI) was measured during week -1 and week 6; energy expenditure was assessed at study day 5-7 and at study day 34-36. Fasting blood glucose and insulin levels were measured at baseline and termination, while an oral glucose tolerance test was performed at week 4. […]

[5] = test system: uncoupling protein 1 (UCP-1) expression in subcutaneous adipose tissue; assay: UCP-1 expression in subcutaneous adipose tissue of DIO mice; type: in vivo, mouse
Method: Body weight, food and water intake are measured daily. Body composition is measured using EchoMRI. Subcutaneous fat is collected and weighed at study termination.
as §1, with “At termination, the M gastrocnemius muscle was weighted and collected for RNAseq analysis, while plasma, brain, liver, BAT, epidydimal and subcutaneous WAT depots were collected for sponsor.” left out

Cc1cc(-n2nc3c(c2-n2ccn(-c4ccc5c(cnn5C)c4F)c2=O)[C@H](C)N(C(=O)c2cc4cc([C@H]5CCOC(C)(C)C5)ccc4n2[C@@]2(c4noc(=O)[nH]4)C[C@@H]2C)CC3)cc(C)c1F [orforglipron]
fat mass change from baseline (DIO hGLP-1R mice; Day 19, PO QD): dose-dependent decrease in fat mass
body weight changes from baseline over time (DIO hGLP-1R mice): dose-dependent body weight decreases over time
daily food intake (DIO hGLP-1R mice; PO QD): profoundly reduced in a dose-dependent manner during the first few days
terminal subcutaneous fat (DIO hGLP-1R mice; PO QD): dose-dependent decrease in subcutaneous fat, although only the high dose was significantly different from vehicle treatment
unbound exposure AUC24h,u ([1]; 0.2 mg/kg daily in mice, equivalent to 6 mg/day in humans): ~0.300 ng·h/mL
unbound exposure AUC24h,u ([1]; 2 mg/kg daily in mice, equivalent to 45 mg/day in humans): ~1.60 ng·h/mL
AUC(0-t) ([1]; mouse, in vivo, po, 0.2 mg/kg): 543 ng·h/mL
Cmax ([1]; mouse, in vivo, po, 0.2 mg/kg): 47.4 ng/mL
AUC(0-t) ([1]; mouse, in vivo, po, 2 mg/kg): 2670 ng·h/mL
Cmax ([1]; mouse, in vivo, po, 2 mg/kg): 251 ng/mL
exposure (dose proportionality, effect of combination) ([1]; mouse, in vivo, po): increased in a less than dose-proportional manner
exposure (dose proportionality, effect of combination) ([1]; plasma, Day 20, PO QD): largely unaffected when dosed in combination with Compound 9
occurrence of total adverse events compared to placebo, OR (humans; 12 mg daily dose): 2.49 (95% CI: 1.25, 4.98)
occurrence of total adverse events compared to placebo, OR (humans; 24 mg daily dose): 2.23 (95% CI: 1.13, 4.43)
occurrence of total adverse events compared to placebo, OR (humans; 36 mg daily dose): 2.04 (95% CI: 1,08,3.84)
change in body weight at week 26 (humans; 45 mg daily compared to 12, 24 or 36 mg/day): highest change in body weight
occurrence of total adverse events compared to placebo, OR (humans; 45 mg daily dose): 2.96 (95% CI: 1.41, 6.21)
total adverse events compared to placebo (humans; all doses (12, 24, 36, 45 mg daily)): significantly higher
activity on rodent GLP-1R (rodent GLP-1R): inactive

N#Cc1nn(-c2cc(Cl)c(Oc3n[nH]c(=O)c4ccccc34)c(Cl)c2)c(=O)[nH]c1=O [Compound 9, 2-(3,5-dichloro-4-((4-oxo-3,4-dihydrophthalazin−1-yl)oxy)phenyl)-3,5-dioxo-2,3,4,5-tetrahydro-1,2,4-triazine-6-carbonitrile]
average food intake (male DIO mice [2]): normalized semaglutide-induced reduction in food intake
heat production (male DIO mice [3]; after 5 weeks of treatment): increased both dark and light-phase heat production
energy expenditure (EE) (male DIO mice [3]; assessed after week 4): restored energy expenditure to normal (DIO Veh) levels when combined with semaglutide
plasma insulin level (male DIO mice [4]): increased
uncoupling protein 1 (UCP-1) expression [5]: partially restored the obesity induced lowering of UCP-1
fat mass change from baseline (DIO hGLP-1R mice; Day 19, PO QD): remained relatively unchanged
lean mass change from baseline (DIO hGLP-1R mice; Day 19, PO QD): negligible
body weight changes from baseline over time (DIO hGLP-1R mice): remained relatively unchanged; also recorded: comparable to a 10-fold higher dose of orforglipron as monotherapy
terminal subcutaneous fat (DIO hGLP-1R mice; PO QD): not significantly different from mice treated with vehicle
AUC(0-t) ([1]; mouse, in vivo, po, 3 mg/kg): 19000 ng·h/mL
Cmax ([1]; mouse, in vivo, po, 3 mg/kg): 2480 ng/mL
exposure (dose proportionality, effect of combination) ([1]; mouse, in vivo, po): unaffected when dosed in combination with orforglipron
